Laboratory results taken from patent publication US20170101431A1, “NUCLEOSIDE DERIVATIVES FOR THE TREATMENT OF CANCER” (IDENIX PHARMACEUTICALS LLC, priority 2014, published 2017).
Read-outs that look alike come from different tables or passages of the source. Values belong to the compound of their own block, whether it stands above or below them.

Tested on: AML samples (live leukemic cells from bone marrow or peripheral blood of patients)
Test: Ex-vivo effect on AML patient samples (depletion of live leukemic cells, flow cytometry, Annexin V)
Assay type: cell-based, human
Experimental: Patient samples were obtained from a non-interventional and prospective study. The study included samples from adult patients over 18 years of age who were diagnosed with Acute Myeloid Leukemia (AML).
In one embodiment, the method of data acquisition was performed as follows: on day 1 bone marrow (BM) or peripheral blood (PB) patient sample was received. A small part was separated from the rest of the sample for validation, while the majority of the sample was diluted with culture media and plated into 96-well plates previously prepared with the desired compounds and compound combinations, e.g., a compound or compound combination described herein. The number of live leukemic cells seeded in each well was fixed between 8000 and 32000, depending on the percentage of leukemic cells for each sample. […] Antibodies were added to identify leukemic cells using a gating strategy based on FSC/SSC and expression or lack of expression of different surface markers. The monoclonal antibodies selection was performed to optimize the identification of leukemic cell in each sample.
In one embodiment, non-limiting examples of biomarkers such as the biomarkers CD34, CD45, CD117, and HLADR known as “backbone markers” for AML (van Dongen, J. J. and A. Orfao, EuroFlow: Resetting leukemia and lymphoma immunophenotyping. Basis for companion diagnostics and personalized medicine, Leukemia, 2012, 26, 1899-907) were included in the combination.
In one embodiment, antibody combinations such as CD117/CD45, CD34/CD45, and HLADR/CD45 were used. Live leukemic cells were identified by their light scatter properties (FSC^int/hi/SSC^int) in the absence of Annexin-V-FITC staining. FSC/SSC selection was performed to exclude debris. The average percentage of cell viability upon receipt of the sample was 80% and samples were only processed if the viability was greater than 50%.
In one embodiment, sample validation was performed as follows: BM and PB samples were extracted under sterile conditions and received in the laboratory within 24 hours of extraction. Initial analysis evaluated the number of pathological cells and their viability. Different volumes of sample (1 μL, 3 μL, 5 μL and 7 μL) were aliquoted in duplicate into a 96-well plate. To lyse red blood cells, 180 μL of ammonium chloride lysis solution was added to each well (2 g KHCO3, 16.58 g NH4Cl, 0.074 g Na2EDTA2.H2O, H2O to […]). Following a 10 min incubation period at 4° C., plate was centrifuged for 5 min at 1200 rpm and the supernatant removed. The lysis step was performed twice. To analyze, 20 μL of a combination of Annexin V-FITC (Immunostep, Salamanca, Spain), binding buffer (BB, 2.4 g HEPES, 8.19 g NaCl, 0.37 g Cl2Ca, H2O to […]), and the following monoclonal antibodies (mAb) were added to each well: CD117 (clone 104D2)-PE (Becton Dickinson, San Jose, Calif., US), CD34 (clone 581)-PerCP (BioLegend, San Diego, Calif., US), HLADR (clone L243)-PB (BioLegend) and CD45 (HI30)-PO (Life Technologies, Carlsbad, Calif., US) (van Dongen, J. J., et al., EuroFlow antibody panels for standardized n-dimensional flow cytometric immunophenotyping of normal, reactive and malignant leukocytes, Leukemia, 2012, 26, 1908-75). After 15 min of incubation at room temperature in the dark, a wash step was performed using binding buffer solution. The pellet was resuspended in 30 μL BB for analysis in Vivia's ExviTech© platform. Cell count and viability upon arrival were computed and the optimal volume of sample to use per well was determined.
In one embodiment, the assay was performed according to following method: the whole sample was diluted with RPMI 1640, supplemented with 20% (v/v) FBS (Thermo Scientific, Waltham, Mass., US), 2% HEPES, 1% antibiotic (Zell Shield, Labclinics, Barcelona, Spain) and 1% L-glutamine 200 mM (Lonza, Hopkinton, Mass., US) to a final volume of 60 μL per well. […]

[1] = Homo sapiens, 72 h, plates incubated for 72 hours
[2] = Homo sapiens, 72 h, plates incubated for 72 hours, read-out: Emax
[3] = Homo sapiens, 48 h, plates incubated for 48 hours
[4] = Homo sapiens, 48 h, plates incubated for 48 hours, read-out: Emax

Structure (SMILES): COC(=O)COP(=O)(N[C@@H](CC(C)C)C(=O)OC)OC[C@H]1O[C@@H](n2cnc3c(N)nc(Cl)nc32)C(F)C1O (single isomer, unassigned) [drawing 660]
EC50 (plates incubated for 72 hours): 1 to 10 µM | Emax (plates incubated for 72 hours): B (B=10-20%)

Structure (SMILES): CCOC(=O)[C@H](CC(C)C)NP1(=O)OC[C@H]2O[C@@H](n3cnc4c(N)nc(F)nc43)[C@@H](O)[C@@H]2O1 (single isomer, unassigned) [drawing 672]
EC50 [3]: 10 to 20 µM | Emax (plates incubated for 48 hours): C (C>20%)

Structure (SMILES): COC(=O)COP(=O)(N[C@@H](CC(C)C)C(=O)OC)OC[C@H]1O[C@@H](n2cnc3c(N)nc(Cl)nc32)C(F)C1O (single isomer, unassigned) [drawing 659]
EC50 [1]: 1 to 10 µM | Emax [2]: > 20%

Structure (SMILES): COC(=O)[C@H](CC(C)C)NP(=O)(N[C@@H](CC(C)C)C(=O)OC)OC[C@H]1O[C@@H](N2C=NC3C(N)=NC(F)=NC32)[C@@H](O)[C@@H]1O (stereo partly shown)
EC50 [3]: ≥ 20 µM | Emax [4]: 10 to 20%

Structure (SMILES): COC(=O)COP(=O)(NC(CC(C)C)C(=O)OC)OC[C@H]1O[C@@H](n2cnc3c(N)nc(F)nc32)[C@@H](O)[C@@H]1O (stereo partly shown)
EC50 [3]: 1 to 10 µM | Emax [4]: 0 to 10%

Structure (SMILES): CCOC(=O)[C@H](CC(C)C)NP(=O)(OCC(=O)OC)OC[C@H]1O[C@@H](n2ccc(N)nc2=O)C(O)C1O (single isomer, unassigned) [drawing 664]
EC50 [1]: 1 to 10 µM | Emax [2]: 0 to 10%

Structure (SMILES): COC(=O)COP(=O)(N[C@@H](CC(C)C)C(=O)OC)OC[C@H]1O[C@@H](n2ccc(N)nc2=O)C(O)C1O (single isomer, unassigned) [drawing 663]
EC50 (plates incubated for 72 hours): 10 to 20 µM | Emax (plates incubated for 72 hours): A (A=0-10%)

Structure (SMILES): Cn1c(COP(=O)(NCc2ccccc2)OC[C@H]2O[C@@H](n3ccc(N)nc3=O)C(O)C2O)cnc1[N+](=O)[O-] (single isomer, unassigned) [drawing 667]
EC50 (plates incubated for 72 hours): 1 to 10 µM

Structure (SMILES): CC(C)(CO)C(=O)SCCOP(=O)(NCc1ccccc1)OC[C@H]1O[C@@H](n2cnc3c(N)nc(Cl)nc32)C(F)C1O (single isomer, unassigned) [drawing 658]
EC50 (plates incubated for 72 hours): 1 to 10 µM | Emax (plates incubated for 72 hours): B (B=10-20%)

Structure (SMILES): CCOC(=O)C(C)NP1(=O)OCC2O[C@@H](n3cnc4c(N)nc(Cl)nc43)[C@@H](F)[C@@H]2O1 (single isomer, unassigned) [drawing 654]
EC50 (plates incubated for 72 hours): 10 to 20 µM | Emax (plates incubated for 72 hours): B (B=10-20%)

Structure (SMILES): CCOC(=O)C(C)NP1(=O)OCC2O[C@@H](n3cnc4c(N)nc(Cl)nc43)[C@@H](F)[C@@H]2O1 (single isomer, unassigned) [drawing 653]
EC50 (plates incubated for 72 hours): ≤ 1 µM | Emax (plates incubated for 72 hours): A (A=0-10%)

Structure (SMILES): COC(=O)[C@H](CC(C)C)NP(=O)(N[C@@H](CC(C)C)C(=O)OC)OC[C@H]1O[C@@H](n2cnc3c(N)nc(Cl)nc32)C(F)C1O (stereo partly shown)
EC50 [1]: 1 to 10 µM | Emax [2]: > 20%

Structure (SMILES): CC(C)OP1(=O)OC[C@H]2O[C@@H](N3C=NC4C(N)=NC(F)=NC43)[C@@H](O)[C@@H]2O1 (single isomer, unassigned) [drawing 676]
EC50 (plates incubated for 48 hours): ≥ 20 µM | Emax (plates incubated for 48 hours): C (C>20%)

Structure (SMILES): CC(C)OC(=O)[C@H](C)NP(=O)(OC[C@H]1O[C@@H](n2cnc3c(N)nc(F)nc32)[C@@H](O)[C@@H]1O)Oc1ccccc1 (stereo partly shown)
EC50 (Homo sapiens, plates incubated for 48 hours): ≥ 20 µM | Emax (Homo sapiens, plates incubated for 48 hours, read-out: Emax): 0 to 10%

Structure (SMILES): CC(C)(O)C(=O)SCCOP(=O)(OCCSC(=O)C(C)(C)CO)OC[C@H]1O[C@@H](N2C=NC3C(N)=NC(Cl)=NC32)[C@@H](F)[C@@H]1O (stereo partly shown)
EC50 [1]: 1 to 10 µM | Emax [2]: 10 to 20%

Now from value to compound, other results behind:

EC50 [1]: 10 to 20 µM
Structure (SMILES): CC(C)(CO)C(=O)SCCOP(=O)(NCc1ccccc1)OC[C@H]1O[C@@H](n2ccc(N)nc2=O)C(O)C1O (stereo partly shown)
Emax [2]: 0 to 10%

EC50 [3]: 10 to 20 µM
Structure (SMILES): CCOC(=O)[C@H](C)NP1(=O)OC[C@H]2O[C@@H](n3cnc4c(N)nc(F)nc43)[C@@H](O)[C@@H]2O1 (single isomer, unassigned) [drawing 680]
Emax [4]: > 20%

EC50 [1]: ≤ 1 µM
Structure (SMILES): CC(C)(CO)C(=O)SCCOP(=O)(NCc1ccccc1)OC[C@H]1O[C@@H](n2cnc3c(N)nc(Cl)nc32)C(F)C1O (single isomer, unassigned) [drawing 657]
Emax [2]: 10 to 20%

EC50 [3]: 1 to 10 µM
Structure (SMILES): Nc1nc(F)nc2c1ncn2[C@@H]1O[C@H](COP(=O)(O)NCc2ccccc2)[C@@H](O)[C@@H]1O
Emax [4]: 0 to 10%

EC50 [1]: ≤ 1 µM
Structure (SMILES): Nc1nc(Cl)nc2c1ncn2[C@@H]1O[C@H](COP(=O)(O)NCc2ccccc2)C(O)C1F (stereo partly shown)
Emax [2]: 0 to 10%

EC50 (plates incubated for 72 hours): 1 to 10 µM
Structure (SMILES): COC(=O)COP(=O)(N[C@@H](CC(C)C)C(=O)OC)OC[C@H]1O[C@@H](n2ccc(N)nc2=O)C(O)C1O (single isomer, unassigned) [drawing 662]
Emax (plates incubated for 72 hours): B (B=10-20%)

EC50 (plates incubated for 48 hours): ≥ 20 µM
Structure (SMILES): CCOC(=O)[C@H](CC(C)C)NP1(=O)OC[C@H]2O[C@@H](n3cnc4c(N)nc(F)nc43)[C@@H](O)[C@@H]2O1 (single isomer, unassigned) [drawing 673]
Emax (plates incubated for 48 hours): A (A=0-10%)

EC50 [1]: 10 to 20 µM
Structure (SMILES): CCCCCCCC/C=C/CCCCCCCC(=O)Nc1ccn([C@@H]2O[C@H](COP(=O)(N[C@@H](CC(C)C)C(=O)OC)N[C@@H](CC(C)C)C(=O)OC)C(O)C2O)c(=O)n1 (stereo partly shown)
Emax [2]: > 20%

EC50 (plates incubated for 72 hours): 1 to 10 µM
Structure (SMILES): CCOC(=O)[C@H](CC(C)C)NP(=O)(OCC(=O)OC)OC[C@H]1O[C@@H](n2ccc(N)nc2=O)C(O)C1O (single isomer, unassigned) [drawing 665]

EC50 (plates incubated for 48 hours): 10 to 20 µM
Structure (SMILES): CCOC(=O)[C@H](C)NP1(=O)OC[C@H]2O[C@@H](n3cnc4c(N)nc(F)nc43)[C@@H](O)[C@@H]2O1 (single isomer, unassigned) [drawing 681]

EC50 [3]: 10 to 20 µM
Structure (SMILES): CC(C)OP1(=O)OC[C@H]2O[C@@H](N3C=NC4C(N)=NC(F)=NC43)[C@@H](O)[C@@H]2O1 (single isomer, unassigned) [drawing 675]
Emax [4]: > 20%

EC50 [1]: 1 to 10 µM
Structure (SMILES): Cn1c(COP(=O)(NCc2ccccc2)OC[C@H]2O[C@@H](n3ccc(N)nc3=O)C(O)C2O)cnc1[N+](=O)[O-] (single isomer, unassigned) [drawing 666]
Emax [2]: 0 to 10%

EC50 [3]: 10 to 20 µM
Structure (SMILES): CCOC(=O)[C@H](CC(C)C)NP(=O)(O)OC[C@H]1O[C@@H](N2C=NC3C(N)=NC(F)=NC32)[C@@H](O)[C@@H]1O (stereo partly shown)
Emax [4]: > 20%

EC50 [1]: 10 to 20 µM
Structure (SMILES): Nc1ccn([C@@H]2O[C@H](COP(=O)(O)NCc3ccccc3)C(O)C2O)c(=O)n1 (stereo partly shown)
Emax [2]: 0 to 10%
